The source made the active and inactive calls.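 Rule for the calls: active = EC50 of 10 µM or lower; inactive = EC50 above 10 µM.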
tested on: DHL10 Bax/Bak-deficient cells, cytotoxicity, MTS absorbance; assay: DHL10 Bax/Bak-null cell killing – MTS absorbance, EC50, counter-screen for MCL1-BIM inhibitor project, late-stage follow-up (AID 493058)

Structure (SMILES) | EC50
CCCC(=O)Nc1nnc(Cc2ccccc2)s1 | > 25 µM (inactive)
CN(CCOc1ccccc1)C(=O)c1cc(-c2ccco2)nc2ccccc12 | > 25 µM (inactive)
COc1ccccc1NC(=O)c1cc(-c2ccc(C)o2)nc2ccccc12 | > 25 µM (inactive)
Cc1csc(NC(=O)c2cc(-c3ccco3)nc3ccccc23)n1 | > 25 µM (inactive)
O=C(Nc1nccs1)c1cc(-c2ccco2)nc2ccccc12 | > 25 µM (inactive)
Cc1ccc(-c2cc(C(=O)N(C)CC(=O)Nc3ccccc3Br)c3ccccc3n2)o1 | > 25 µM (inactive)
CCOC(=O)c1cc(-c2ccco2)nc2c1c(C)nn2-c1cccc(Cl)c1 | > 25 µM (inactive)
O=C(Cc1cccs1)Nc1nnc(Cc2ccccc2)s1 | > 25 µM (inactive)
O=C(Nc1ccc(F)cc1F)c1cc(-c2ccco2)nc2ccccc12 | > 25 µM (inactive)
CCOc1cc(N2CCOCC2)c(OCC)cc1NC(=O)c1cc(-c2ccco2)nc2ccccc12 | > 25 µM (inactive)
COc1ccc(Cc2nnc(NC(=O)Cc3ccsc3)s2)cc1OC | > 25 µM (inactive)
COc1ccc(Cc2nnc(NC(=O)Cc3c[nH]c4ccccc34)s2)cc1OC | > 25 µM (inactive)
Cc1ccc(-c2cc(C(=O)Nc3cccnc3)c3ccccc3n2)o1 | > 25 µM (inactive)
CC(=O)c1cccc(NC(=O)c2cc(-c3ccco3)nc3ccccc23)c1 | > 25 µM (inactive)
COc1ccc(Cc2nnc(NC(=O)Cc3ccccn3)s2)cc1OC | > 25 µM (inactive)
COc1ccc(CC(=O)Nc2nnc(Cc3ccc(OC)c(OC)c3)s2)cc1 | > 25 µM (inactive)
Cc1cccc(NC(=O)c2cc(-c3ccco3)nc3ccc(Br)cc23)n1 | 10 µM
CCc1nnc(NC(=O)c2cc(-c3ccco3)nc3ccccc23)s1 | > 25 µM (inactive)
COc1cccc(NC(=O)c2cc(-c3ccco3)nc3ccccc23)c1 | > 25 µM (inactive)
COc1ccc(Cc2nnc(NC(=O)Cc3ccc(-c4ccccc4)cc3)s2)cc1OC | > 25 µM (inactive)
CCCn1c(N)c(N(CCOC)C(=O)c2cc(-c3ccco3)nc3ccccc23)c(=O)[nH]c1=O | > 25 µM (inactive)
Cc1ccc(NC(=O)c2cc(-c3ccc(C)o3)nc3ccccc23)cc1 | > 25 µM (inactive)
O=C(Nc1cccnc1)c1cc(-c2ccco2)nc2ccc(Br)cc12 | > 25 µM (inactive)
COc1ccc(Cc2nnc(CC(=O)Nc3cccs3)s2)cc1 | > 25 µM (inactive)

Structure (SMILES) | EC50
Cc1ccc(-c2cc(C(=O)NCC(c3ccccc3)N(C)C)c3ccccc3n2)o1 (centres undefined) | > 25 µM (inactive)
Cc1ccnc(NC(=O)c2cc(-c3ccco3)nc3ccc(Br)cc23)c1 | > 25 µM (inactive)
Cc1cccc(NC(=O)c2cc(-c3ccc(C)o3)nc3ccccc23)n1 | > 25 µM (inactive)
COc1ccc(Cc2nnc(NC(=O)Cc3cccc(Br)c3)s2)cc1OC | > 25 µM (inactive)
COc1ccc(Cc2nnc(NC(=O)c3cc(-c4ccco4)nc4ccccc34)s2)cc1OC | > 25 µM (inactive)
Cc1ccc(-c2cc(C(=O)N3CCN(c4ncccn4)CC3)c3cc(Br)ccc3n2)o1 | > 25 µM (inactive)
COc1ccc(Cc2nnc(NC(=O)Cc3ccncc3)s2)cc1OC | > 25 µM (inactive)
Cc1ccc2nc(NC(=O)c3cc(-c4ccco4)nc4ccccc34)sc2c1 | > 25 µM (inactive)
O=C(c1cc(-c2ccco2)nc2ccccc12)N1CCN(c2ccc(F)cc2)CC1 | > 25 µM (inactive)
COc1ccc(NC(=O)c2cc(-c3ccco3)nc3ccccc23)cc1S(=O)(=O)N1CCOCC1 | > 25 µM (inactive)
CCN(CC)C(=O)COc1ccc2c(-c3ccc(OC)cc3)cc(=O)oc2c1C | > 25 µM (inactive)
O=C(CCn1nnc2ccccc21)Nc1nnc(Cc2ccc(F)cc2)s1 | > 25 µM (inactive)
CCCCN(C(=O)c1cc(-c2ccco2)nc2ccccc12)c1c(N)n(CCCC)c(=O)[nH]c1=O | > 25 µM (inactive)
CCCN(C(=O)c1cc(-c2ccco2)nc2ccccc12)c1c(N)n(Cc2ccccc2)c(=O)[nH]c1=O | > 25 µM (inactive)
COc1ccc(Cc2nnc(NC(=O)CCc3cccs3)s2)cc1OC | > 25 µM (inactive)
CCOC(=O)C1CCCN(C(=O)c2cc(-c3ccco3)nc3ccccc23)C1 (centres undefined) | > 25 µM (inactive)
COc1ccc(NC(=O)c2cc(-c3ccc(C)o3)nc3ccccc23)c(OC)c1 | > 25 µM (inactive)
Cc1ccc(-c2cc(C(=O)Nc3cccc(S(=O)(=O)N(C)C)c3)c3ccccc3n2)o1 | > 25 µM (inactive)
Cc1ccc(S(=O)(=O)N(C)C)cc1NC(=O)c1cc(-c2ccco2)nc2ccccc12 | > 25 µM (inactive)
COc1ccc(Cc2nnc(NC(=O)Cc3cccs3)s2)cc1OC | > 25 µM (inactive)
O=C(NC(=S)Nc1cccc(S(=O)(=O)NC2=NCCC2)c1)c1cc(-c2ccco2)nc2ccccc12 | > 25 µM (inactive)
COc1cccc(NC(=O)CN(C)C(=O)c2cc(-c3ccc(C)o3)nc3ccccc23)c1 | > 25 µM (inactive)
CCCCN(C(=O)c1cc(-c2ccco2)nc2ccccc12)c1c(N)n(CCC)c(=O)[nH]c1=O | > 25 µM (inactive)
CCN(CC)C(=O)COc1ccc2c(-c3ccccc3)cc(=O)oc2c1 | > 25 µM (inactive)

Structure (SMILES) | EC50
Cc1ccc(-c2cc(C(=O)N3CC(C)CC(C)C3)c3ccccc3n2)o1 (centres undefined) | > 25 µM (inactive)
COc1ccc(Cc2nnc(NC(=O)c3cc(-c4ccc(C)o4)nc4ccccc34)s2)cc1OC | 25 µM (inactive)
Cc1ccc(NC(=O)c2cc(-c3ccc(C)o3)nc3ccccc23)nc1 | > 25 µM (inactive)
Cc1ccc(-c2cc(C(=O)NCCCn3ccnc3)c3cc(Br)ccc3n2)o1 | > 25 µM (inactive)
CC(C)CCNC(=O)c1cc(-c2ccco2)nc2ccccc12 | > 25 µM (inactive)
COc1ccc(Cc2nnc(NC(=O)C3(c4ccccc4)CC3)s2)cc1OC | > 25 µM (inactive)
COc1ccc(Cc2nnc(NC(=O)Cc3ccc(N(C)C)cc3)s2)cc1OC | > 25 µM (inactive)
COc1ccc(Cc2nnc(NC(=O)Cc3cccnc3)s2)cc1OC | > 25 µM (inactive)
CCCCn1c(N)c(N(CCOC)C(=O)c2cc(-c3ccco3)nc3ccccc23)c(=O)[nH]c1=O | > 25 µM (inactive)
O=C(CCn1nnc2ccccc21)Nc1nnc(Cc2ccccc2)s1 | > 25 µM (inactive)
COc1cccc(CC(=O)Nc2nnc(Cc3ccc(OC)c(OC)c3)s2)c1 | > 25 µM (inactive)
O=C(NCC1CCCO1)c1cc(-c2ccco2)nc2ccccc12 (centres undefined) | > 25 µM (inactive)
O=C(Nc1nncs1)c1cc(-c2ccco2)nc2ccccc12 | > 25 µM (inactive)
Cc1ccc(-c2cc(C(=O)N3CCN(c4ccccc4O)CC3)c3ccccc3n2)o1 | > 25 µM (inactive)
O=C(NC1CC1)c1cc(-c2ccco2)nc2ccccc12 | > 25 µM (inactive)
Cc1ccc(-c2cc(C(=O)N3CCN(c4ccc(F)cc4)CC3)c3ccccc3n2)o1 | > 25 µM (inactive)
COc1ccc(NC(=O)CN(C)C(=O)c2cc(-c3ccc(C)o3)nc3ccccc23)cc1 | > 25 µM (inactive)
O=C(NCCCN1CCOCC1)c1cc(-c2ccco2)nc2ccccc12 | > 25 µM (inactive)
COc1ccc(Cc2nnc(NC(=O)C(F)c3ccccc3)s2)cc1OC (centres undefined) | > 25 µM (inactive)
O=C(Nc1cccc(S(=O)(=O)NC2=NCCCCC2)c1)c1cc(-c2ccco2)nc2ccccc12 | > 25 µM (inactive)
O=C(c1cc(-c2ccco2)nc2ccccc12)N1CCN(Cc2ccccc2)CC1 | > 25 µM (inactive)
Cc1ccnc(NC(=O)c2cc(-c3ccc(C)o3)nc3ccccc23)c1 | > 25 µM (inactive)
Cc1ccc(-c2cc(C(=O)Nc3nccs3)c3ccccc3n2)o1 | > 25 µM (inactive)
COc1ccc(Cc2nnc(NC(=O)Cc3ccccc3C)s2)cc1OC | > 25 µM (inactive)

Structure (SMILES) | EC50
O=C(Nc1nc2ccccc2s1)c1cc(-c2ccco2)nc2ccccc12 | > 25 µM (inactive)
Cc1ccc(-c2cc(C(=O)Nc3ccccc3C(N)=O)c3ccccc3n2)o1 | > 25 µM (inactive)
COc1ccc(Cc2nnc(NC(=O)Cc3ccc(C)cc3)s2)cc1OC | > 25 µM (inactive)
CC(=O)N1CCN(C(=O)c2cc(-c3ccc(C)o3)nc3ccccc23)CC1 | > 25 µM (inactive)
O=C(NC1CCC(O)CC1)c1cc(-c2ccco2)nc2ccccc12 (centres undefined) | > 25 µM (inactive)
COc1ccc(Cc2nnc(NC(=O)Cc3ccc4ccccc4c3)s2)cc1OC | > 25 µM (inactive)
CCc1nnc(NC(=O)c2cc(-c3ccc(C)o3)nc3ccccc23)s1 | > 25 µM (inactive)
CCCCn1c(N)c(N(CCC(C)C)C(=O)c2cc(-c3ccco3)nc3ccccc23)c(=O)[nH]c1=O | > 25 µM (inactive)
COc1ccc(Cc2nnc(NC(=O)Cc3sc(=S)[nH]c3C)s2)cc1OC | > 25 µM (inactive)
CN(CCOc1ccc(Cl)cc1)C(=O)c1cc(-c2ccco2)nc2ccccc12 | > 25 µM (inactive)
CN(CC(=O)Nc1cccc(F)c1)C(=O)c1cc(-c2ccco2)nc2ccccc12 | > 25 µM (inactive)
Cc1ccc(-c2cc(C(=O)Nc3ccccn3)c3ccccc3n2)o1 | > 25 µM (inactive)
COc1ccc(Cc2nnc(NC(=O)c3cc(-c4ccco4)nc4ccc(Br)cc34)s2)cc1OC | 20 µM (inactive)
COc1ccc(Cc2nnc(NC(=O)Cc3ccc4c(c3)OCO4)s2)cc1OC | > 25 µM (inactive)
O=C(Nc1ccccn1)c1cc(-c2ccco2)nc2ccc(Br)cc12 | 10 µM
CCN1CCN(C(=O)c2cc(-c3ccco3)nc3ccccc23)CC1 | > 25 µM (inactive)
Cc1nnc(NC(=O)c2cc(-c3ccco3)nc3ccccc23)s1 | > 25 µM (inactive)
COc1ccc(Cc2nnc(NC(=O)CCc3ccco3)s2)cc1OC | > 25 µM (inactive)
Cc1ccc(-c2cc(C(=O)N3CCCC(C(F)(F)F)C3)c3ccccc3n2)o1 (centres undefined) | > 25 µM (inactive)
COC(=O)C1CCN(C(=O)c2cc(-c3ccco3)nc3ccccc23)CC1 | > 25 µM (inactive)
COc1ccc(NC(=O)c2cc(-c3ccco3)nc3ccccc23)cc1 | > 25 µM (inactive)
CN(CC(=O)Nc1ccc(F)cc1)C(=O)c1cc(-c2ccco2)nc2ccccc12 | > 25 µM (inactive)
